In patent publication US12497359B2, “Acrylamide derivatives” (NRG Therapeutics Ltd, priority 2020, dated 2025):
≈ marks a conversion by molar mass, not a printed value. Where a name gives a salt, the structure may show the parent alone.

Columns and labels:
[1] = tested on: mPTP; assay: mPTP activity assay in isolated rat liver mitochondria (Ca2+ retention, Fluo5N, FLIPR); type: biochemical; conditions: isolated rat liver mitochondria; average value from multiple experiments (n ≥ 2)
Text: Pharmacological inhibition or modulation of the mPTP can be measured in well characterised ‘Ca^2+ retention’ assays performed in isolated mitochondria. In vitro, isolated mitochondria rapidly sequester exogenous Ca^2+ until the intramitochondrial Ca^2+ concentration reaches the threshold for mPTP activation. Once the pore is activated, mitochondrial integrity is compromised and the stored Ca^2+ is released. The distribution of Ca^2+ between extra- and intra-mitochondrial compartments can be measured in real time with the use of membrane-impermeant Ca^2+ sensitive fluorescent dyes. Depending on the configuration of the assay, inhibition or modulation of the mPTP either delays the opening of the pore or increases the concentration of Ca^2+ required to induce mPTP opening.
mPTP activity was measured in mitochondria freshly isolated from female Sprague Dawley (250 to 300 gram) rat livers using the following method. Cervical dislocation was performed on the rat. The liver was then perfused in-situ with ˜40 ml cold Dulbecco's Phosphate Buffered Saline (DPBS) prior to dissection and transferred into 30 ml Isolation Buffer (250 mM Sucrose, 10 mM KCl, 1 mM EGTA, 1 mM EDTA, 25 mM HEPES, adjusted to pH 7.5 with 1 M NaOH). Each lobe of the liver was then removed from the buffer, minced using tweezers and a scalpel into ˜5 mm pieces then transferred into a 50 ml Potterton dounce homogenization tube on ice containing 30 ml ice-cold centrifugation buffer (300 mM Trehalose, 25 mM HEPES, 1 mM EGTA, 1 mM EDTA, 10 mM KCl, adjusted to pH 7.5 with 1 M NaOH and supplemented with 0.1% bovine serum albumin (BSA) and complete protease inhibitor cocktail (one tablet of inhibitor per 50 mls of buffer). Homogenisation was carried out using a teflon pestle at 1800 rpm. The slurry was centrifuged at 800 g for 10 min at 4° C., then the supernatant centrifuged at 10,000 g for 10 min. The pellet was washed once with FLIPR assay buffer (75 mM Mannitol, 25 mM Sucrose, 5 mM Potassium Phosphate Monobasic, 20 mM Tris base, 100 mM KCl, 0.1% BSA adjusted to pH 7.4 with 5 M HCl) centrifuged again, then resuspended in FLIPR assay buffer to a concentration of 8.8 mg/ml protein.
Test compounds (10 mM stock in DMSO) were serially diluted in DMSO in half log steps to generate 10 test concentrations (final concentrations in assay 30 μM to 1 nM). An intermediate dilution of 5 μl DMSO samples into 247 μl FLIPR assay buffer was carried out prior to transfer of 5 μl into duplicate wells of a 384 well polypropylene assay plate. Control wells were 0.5% (v/v) DMSO and 5 μM cyclosporin A.
A stock mitochondria/Fluo5N assay solution was prepared in 5.6 ml FLIPR assay buffer (at RT) supplemented with succinate disodium salt (10 mM), rotenone (1 μM), Fluo5N pentapotassium salt (2 μM) and 1 ml mitochondria suspension, then transferred (15 μl) into the assay plate containing test compounds and incubated for 10 min at RT. Assay plates were then transferred to a FLIPR Tetra plate reader (Molecular Devices). Dye fluorescence was then measured every 3 sec for a total of 10 min. After 12 sec, a 2.5 μl bolus of CaCl2 (75 μM) was added from a source plate containing 675 μM CaCl2 in FLIPR assay buffer. IC50 values for test compounds were calculated using the fluorescence value collected at the 10 min timepoint with % inhibition calculated using the DMSO control and cyclosporin A values as […] respectively.

[2] = Hepatocyte clearance assay, rat; type: in vitro ADME; conditions: cryopreserved primary rat hepatocytes, average value from two experiments, read-out: Rat heps intrinsic clearance (CLint)
Experimental: In vitro clearance studies were performed in primary rat and human hepatocytes (BioIVT). Vials of cryopreserved rat or human hepatocytes were thawed in a 37° C. water bath for 2 min. Cells were transferred into thawing medium (Williams' Medium E containing 30% Percoll, 1× GlutaMAX-1, 15 mM HEPES, 5% fetal bovine serum (FBS), 4 μg/ml insulin, 1 μM dexamethasone), centrifuged at 100 g for 10 min then resuspended in culture medium (Leibovitz's L-15 Medium) at a concentration of 0.5×10^6 viable cells/mL (number of viable cells assessed using AO/PI staining). Hepatocytes (198 μL) were transferred into wells of a 96-well non-coated plate and placed in a 37° C. incubator for 10 min. Test compound solutions were prepared from 10 mM stocks in DMSO, diluted to 100 μM in 50% (v/v in water) acetonitrile. Test compound samples (2 μl) were added to each well of hepatocytes and incubated at 37° C. Samples (25 μl) were collected at t=0, 15, 30, […] and 120 min, mixed with 6 volumes (150 μl) of acetonitrile containing internal standard (100 nM alprazolam, 200 nM caffeine and 100 nM tolbutamide), vortexed for 5 min and centrifuged for 45 min at 3220 g. An aliquot of supernatant (100 μL) was diluted with 100 μL ultra-pure water, and the mixture was used for LC/MS/MS analysis. All incubations were performed in duplicate. Peak areas were determined from extracted ion chromatograms. The slope value, k, was determined by linear regression of the natural logarithm of the remaining percentage of the parent drug vs. incubation time curve. The in vitro half-life (in vitro t1/2) was determined from the slope value: in vitro t1/2=0.693/k. Conversion of the in vitro t1/2 (in min) into the in vitro intrinsic clearance (in vitro CLint, in μL/min/1×10^6 cells) was done using the following equation (mean of duplicate determinations): • in vitro CLint=kV/N • V=incubation volume (0.2 mL) • N=number of hepatocytes per well (0.1×10^6 cells). Microsomal Clearance Assay

[3] = PBS solubility; type: physicochemical; conditions: aqueous buffer, kinetic from dmso stock; PBS pH 7.4, 2 hr at 25° C.
Experimental: Test compounds were prepared as 10 mM stocks in DMSO and 15 μl samples transferred in duplicate into 1.5 mL glass flat bottom vials (BioTech Solutions). Fasted state simulated intestinal fluid (FaSSIF) or PBS (pH 7.4) was added to each vial to final volume of 500 μl. One PTFE encapsulated stir stick (V&P Scientific) was placed in each vial before sealing with PTFE/SIL plugs (BioTech Solutions). Vials were shaken at 1100 rpm for 2 hr at 25° C. Samples were then filtered through MultiScreen Solvinert filter plates (Millipore) via vacuum filtration. Aliquots of filtrate (5 μl) plus 5 μl DMSO were diluted in 490 μl 50% acetonitrile in water containing internal standard. The filtrate was analysed and quantified against a standard of known concentration using LC-MS/MS. Solubility values of the test compound and control compound were calculated as follows: [Sample]=(Area ratiosample*INJ VOL STD*DFsample*[STD])/(Area ratio STD*INJ VOLsample).

Compound | mPTP Rat liver pIC50* [1] | hepatocyte CLint at 1 µM [2] | solubility at 2 h [3]
O=C(/C=C/c1ccc2cn[nH]c2c1)N[C@@H]1C[C@H](F)c2ccccc21 (single isomer, unassigned) [Example 26] | 6.2 | – | –
O=C(/C=C/c1cc2[nH]ncc2cn1)NC1CCc2ccccc21 (stereo not shown) [Example 35, (E)-N-(2,3-dihydro-1H-inden-1-yl)-3-(1H-pyrazolo[4,3-c]pyridin-6-yl)acrylamide] | 5.7 | – | –
Cc1cccc(F)c1NC(=O)/C=C/c1ccc2cn[nH]c2c1 [Example 33, (E)-N-(2-fluoro-6-methylphenyl)-3-(1H-indazol-6-yl)acrylamide] | 7.0 | – | –
CC1Cc2ccccc2C1NC(=O)/C=C/c1ccc2cn[nH]c2c1 (stereo not shown) [Example 14, (E)-3-(1H-indazol-6-yl)-N-(2-methyl-2,3-dihydro-1H-inden-1-yl)acrylamide] | 7.3 | – | –
O=C(/C=C/c1ccc2cn[nH]c2c1)Nc1ccccc1COc1ccccc1 [Example 17, (E)-3-(1H-indazol-6-yl)-N-(2-(phenoxymethyl)phenyl)acrylamide] | 6.9 | – | –
O=C(/C=C/c1ccc2cn[nH]c2c1)Nc1ccccc1COC1CCC1 [Example 18, (E)-N-(2-(cyclobutoxymethyl)phenyl)-3-(1H-indazol-6-yl)acrylamide] | 6.7 | – | –
C[C@@H]1CCCC[C@H]1NC(=O)/C=C/c1ccc2cn[nH]c2c1 (single isomer, unassigned) [Example 4a] | 6.5 | – | –
O=C(/C=C/c1ccc2cn[nH]c2c1)Nc1ccccc1CO [Example 27, (E)-N-(2-(hydroxymethyl)phenyl)-3-(1H-indazol-6-yl)acrylamide] | 6.8 | – | –
O=C(/C=C/c1ccc2cn[nH]c2c1)Nc1ccccc1COC1CN(CCF)C1 [Example 30, (E)-N-(2-(((1-(2-fluoroethyl)azetidin-3-yl)oxy)methyl)phenyl)-3-(1H-indazol-6-yl)acrylamide Hydrochloride] | 5.8 | – | –
O=C(/C=C/c1ccc2cn[nH]c2c1)Nc1cccc(F)c1 [Example 23, (E)-N-(3-fluorophenyl)-3-(1H-indazol-6-yl)acrylamide] | 5.9 | – | –
O=C(/C=C/c1cc2[nH]ncc2cc1F)NC1CCc2ccccc21 (stereo not shown) [Example 10, (E)-N-(2,3-dihydro-1H-inden-1-yl)-3-(5-fluoro-1H-indazol-6-yl)acrylamide] | 7.6 | 60 µL/min/1e6 cells | –
O=C(/C=C/c1cc2[nH]ncc2cc1Cl)NC1CCc2ccccc21 (stereo not shown) [Example 12, (E)-3-(5-chloro-1H-indazol-6-yl)-N-(2,3-dihydro-1H-inden-1-yl)acrylamide] | 6.0 | – | –
C[C@@H]1CCCC[C@H]1NC(=O)/C=C/c1ccc2cn[nH]c2c1 (single isomer, unassigned) [Example 4b] | 6.3 | – | –
C#CCOCc1ccccc1NC(=O)/C=C/c1ccc2cn[nH]c2c1 [Example 40, (E)-3-(1H-indazol-6-yl)-N-(2-((prop-2-yn-1-yloxy)methyl)phenyl)acrylamide] | 7.1 | – | –
O=C(/C=C/c1ccc2cn[nH]c2c1)Nc1cccc2cnn(Cc3ccccc3)c12 [Example 19, (E)-N-(1-benzyl-1H-indazol-7-yl)-3-(1H-indazol-6-yl)acrylamide] | 7.6 | 179 µL/min/1e6 cells | 0.08 µM (≈ 0.0315 µg/mL)
O=C(/C=C/c1ccc2cn[nH]c2c1)N[C@@H]1C[C@@H](F)c2ccccc21 (single isomer, unassigned) [Example 25] | 6.6 | – | –
Cc1cccc2c1C(NC(=O)/C=C/c1ccc3cn[nH]c3c1)CC2 (stereo not shown) [Example 38, (E)-3-(1H-indazol-6-yl)-N-(7-methyl-2,3-dihydro-1H-inden-1-yl)acrylamide] | 5.0 | – | –
CC1CC(NC(=O)/C=C/c2ccc3cn[nH]c3c2)c2ccccc21 (stereo not shown) [Example 39, (E)-3-(1H-indazol-6-yl)-N-(3-methyl-2,3-dihydro-1H-inden-1-yl)acrylamide] | 5.8 | – | –
Cc1cccc(NC(=O)/C=C/c2ccc3cn[nH]c3c2)c1 [Example 21, (E)-3-(1H-indazol-6-yl)-N-(m-tolyl)acrylamide] | 6.5 | – | –
O=C(/C=C/c1ccc2cn[nH]c2c1)Nc1ccccc1OCc1ccccc1 [Example 16, (E)-N-(2-(benzyloxy)phenyl)-3-(1H-indazol-6-yl)acrylamide] | 6.0 | – | –
CC1COc2ccccc2C1NC(=O)/C=C/c1ccc2cn[nH]c2c1 (stereo not shown) [Example 15, (E)-3-(1H-indazol-6-yl)-N-(3-methylchroman-4-yl)acrylamide] | 6.9 | 20 µL/min/1e6 cells | 5.9 µM (≈ 1.97 µg/mL)
Cn1ncc2cccc(NC(=O)/C=C/c3ccc4cn[nH]c4c3)c21 [Example 20, (E)-3-(1H-indazol-6-yl)-N-(1-methyl-1H-indazol-7-yl)acrylamide] | 7.5 | 10 µL/min/1e6 cells | 1.3 µM (≈ 0.413 µg/mL)
O=C(/C=C/c1ccc2cn[nH]c2c1)Nc1cccc(Cl)c1 [Example 22, (E)-N-(3-chlorophenyl)-3-(1H-indazol-6-yl)acrylamide] | 6.4 | – | –
C[C@@H]1Cc2ccccc2[C@H]1NC(=O)/C=C/c1ccc2cn[nH]c2c1 (single isomer, unassigned) [Example 14d] | 6.2 | – | –
